Each block holds one molecule with its values, some of them ahead of it.
Legend:
human sEH = target: T1, human sEH (Homo sapiens, UniProt P34913); assay: Fluorescent; assay type: biochemical; settings: for drop in inhibition compared to compound 6: ratio of IC50 vs compound 6; for reduced inhibition compared to N,N,O-trimethylated oxyoxalamide derivatives: Conclusions, vs trimethylated derivatives (24, 26, 31); for improvement in inhibition in comparison with compound 27: ratio of IC50 vs compound 27
T1 sequence (P34913 1-555): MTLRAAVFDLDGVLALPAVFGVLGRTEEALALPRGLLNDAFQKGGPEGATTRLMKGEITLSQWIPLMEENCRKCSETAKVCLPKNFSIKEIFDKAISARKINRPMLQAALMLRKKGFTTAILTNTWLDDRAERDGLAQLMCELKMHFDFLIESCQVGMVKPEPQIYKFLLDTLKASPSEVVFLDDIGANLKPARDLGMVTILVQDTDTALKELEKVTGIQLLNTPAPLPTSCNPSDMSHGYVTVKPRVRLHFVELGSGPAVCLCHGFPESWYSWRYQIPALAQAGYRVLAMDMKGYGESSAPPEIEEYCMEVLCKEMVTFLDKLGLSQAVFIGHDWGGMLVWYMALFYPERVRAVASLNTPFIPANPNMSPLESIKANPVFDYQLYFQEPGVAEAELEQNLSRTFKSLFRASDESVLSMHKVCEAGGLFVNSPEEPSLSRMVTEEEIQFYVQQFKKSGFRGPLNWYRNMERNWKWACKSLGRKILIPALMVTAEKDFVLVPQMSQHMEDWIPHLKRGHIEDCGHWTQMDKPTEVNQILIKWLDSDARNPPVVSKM

[1] = Water solubility by light scattering; assay type: physicochemical; settings: vs AUDA

SMILES: CN(OCc1ccccc1)C(=O)C(=O)NC1C2CC3CC(C2)CC1C3 (stereo not drawn) [Compound 13, N^1-(Adamant-2-yl)-N^2-(benzyloxy)-N^2-methyloxalamide]
drop in inhibition compared to compound 6 (human sEH): approximately 60 fold

SMILES: O=C(NOc1ccccc1)C(=O)NC1C2CC3CC(C2)CC1C3 (stereo not drawn) [Compound 7, N^1-(Adamant-2-yl)-N^2-(phenyloxy)oxalamide]
inhibition of human sEH, result in words (human sEH): no inhibition

SMILES: O=C(NCC12CC3CC(CC(C3)C1)C2)C(=O)NOCc1ccccc1 [Compound 5, N^1-(Adamant-1-ylmethyl)-N^2-(benzyloxy)oxalamide]
inhibition of human sEH, result in words (human sEH): moderate inhibition

SMILES: CONC(=O)C(=O)Nc1ccc(CNC(=O)C23CC4CC(CC(C4)C2)C3)cc1 [Compound 18, N-(4-(N^2-Methyloxyoxalamido)benzyl)adamantanecarboxamide]
enhancement in inhibition compared to compound 17 (human sEH; ratio of IC50 vs compound 17): ≥ 3 fold

SMILES: O=C(CNC1C2CC3CC(C2)CC1C3)NOCc1ccccc1 (stereo not drawn) [Compound 16, N-(Benzyloxy)-2-(adamant-2-ylamino)acetamide]
inhibition of human sEH, result in words (human sEH): no inhibition

SMILES: O=C(NOCc1ccccc1)C(=O)NC12CC3CC(CC(C3)C1)C2 [Compound 4, N^1-(Adamant-1-yl)-N^2-(benzyloxy)oxalamide]
inhibition of human sEH, result in words (human sEH): not effective for producing inhibition activity

SMILES: O=C(NOCc1ccccc1)C(=O)NC1C2CC3CC(C2)CC1C3 (stereo not drawn) [Compound 6, N^1-(Adamant-2-yl)-N^2-(benzyloxy)oxalamide]
inhibition potency lower compared to AUDA (human sEH; ratio of IC50 vs AUDA): approximately 15 fold
improvement in inhibition potency compared to compound 5 (human sEH; ratio of IC50 vs compound 5): 16 fold

SMILES: O=C(NOCCCc1ccccc1)C(=O)NC1C2CC3CC(C2)CC1C3 (stereo not drawn) [Compound 12, N^1-(Adamant-2-yl)-N^2-(3-phenylpropyloxy)oxalamide]
drop in inhibition compared to compound 6 (human sEH): approximately 10 fold
better inhibition than compound 11 (human sEH; ratio of IC50 vs compound 11): approximately 8 fold

SMILES: O=C(NCCCc1ccccc1)C(=O)NOCc1ccccc1 [Compound 3, N^1-(Benzyloxy)-N^2-(3-phenylpropyl)oxalamide]
inhibition of human sEH, result in words (human sEH): not effective for producing inhibition activity

Now from value to molecule:

reduced inhibition compared to N,N,O-trimethylated oxyoxalamide derivatives (human sEH): ≤ 10 fold
improvement in inhibition in comparison with compound 27 (human sEH): 2.5 fold
SMILES: CONC(=O)C(=O)Nc1ccc(CNC(=O)NC23CC4CC(CC(C4)C2)C3)cc1 [Compound 28, 1-(4-(N^2-Methyloxyoxalamido)benzyl)-3-adamantylurea]

inhibition of human sEH, result in words (human sEH): complete loss in inhibition
SMILES: O=C(NOC1CCCCO1)C(=O)Nc1ccc(CNC(=O)C23CC4CC(CC(C4)C2)C3)cc1 (stereo not drawn) [Compound 22, N-(4-(N^2-(Tetrahydro-2H-pyran-2-yloxy)oxalamido)benzyl) adamantanecarboxamide]

improved potency compared to O-methyl derivative (18) (human sEH; ratio of IC50 vs compound 18): 1.5 fold
SMILES: CON(C)C(=O)C(=O)N(C)c1ccc(CNC(=O)C23CC4CC(CC(C4)C2)C3)cc1 [Compound 21, N-(4-(N^1-Methyl-N^2-methyl-N^2-(methyloxy)oxalamido)-benzyl)adamantanecarboxamide]

lowered inhibition compared to compound 18 (human sEH; ratio of IC50 vs compound 18): 1.5 fold
SMILES: CC(C)(C)ONC(=O)C(=O)Nc1ccc(CNC(=O)C23CC4CC(CC(C4)C2)C3)cc1 [Compound 19, N-(4-(N^2-t-Butyloxyoxalamido)benzyl)adamantanecarboxamide]

improved potency compared to O-methyl derivative (18) (human sEH; ratio of IC50 vs compound 18): 1.5 fold
SMILES: CON(C)C(=O)C(=O)Nc1ccc(CNC(=O)C23CC4CC(CC(C4)C2)C3)cc1 [Compound 20, N-(4-(N^2-Methyl-N^2-(methyloxy)oxalamido)benzyl)adamantanecarboxamide]

reduced inhibition compared to N,N,O-trimethylated oxyoxalamide derivatives (human sEH): ≤ 10 fold
improvement in inhibition in comparison with compound 27 (human sEH): 3 fold
SMILES: CON(C)C(=O)C(=O)Nc1ccc(CNC(=O)NC23CC4CC(CC(C4)C2)C3)cc1 [Compound 30, 1-(4-(N^2-Methyl-N^2-(methyloxy)oxalamido)benzyl)-3-adamantylurea]

improvement in inhibition in comparison with compound 27 (human sEH): 13 fold
higher solubility in water than AUDA [1]: 10 fold
SMILES: CON(C)C(=O)C(=O)N(C)c1ccc(CNC(=O)NC23CC4CC(CC(C4)C2)C3)cc1 [Compound 31, 1-(4-(N^1-Methyl-N^2-methyl-N^2-(methyloxy)oxalamido)-benzyl)-3-adamantylurea]

From PMC4172381 (Bioorganic & medicinal chemistry, 2014)
